{
  "source": "patent US20200093103A1",
  "about": "“BREEDING WATER FOR ANGUILLIFORMES AND METHOD FOR REARING ANGUILLIFORMES” (SHIN NIPPON BIOMEDICAL LABORATORIES, LTD., priority 2016, published 2020)",
  "system": "Anguilla japonica leptocephali",
  "assay": "Induction of Anguilla japonica metamorphosis by T4 treatment in 23° C. breeding water",
  "format": "in vivo",
  "set-up": "key: L: During life, no characteristics of metamorphosis seen.; Stage 1: Starting phase of metamorphosis. The rostral end is rounded, and intestinal degeneration starts.; Stage 2: Peak phase of metamorphosis. Intestinal degeneration becomes pronounced.; Stage 3: Late phase of metamorphosis.; Stage 4: Pre-glass eel stage. Almost the eel form, but the body height still remains",
  "description": "Stage 1: Starting phase of metamorphosis. The rostral end is rounded, and intestinal degeneration starts.\nStage 2: Peak phase of metamorphosis. Intestinal degeneration becomes pronounced. In the second half, the anus reaches to near the last vertical blood vessel (VBV last).\nStage 3: Late phase of metamorphosis. The preanal length (PAL) becomes equal to or shorter than the last vertical blood vessel length (VBV last Length) (PAL VBV last Length). The body height is apparently low.\nStage 4: Pre-glass eel stage. Almost the eel form, but the body height still remains. Melanophores on the body surface or endogenous melanophores are not yet seen.\nElver stage: Juvenile stage. Food intake can be identified.\nA thyroid hormone (e.g., thyroxine (T4)) is adjusted to 50 to 100 mM in a 1- to 2-mL volume messflask. As a solvent, known solvents (water, alcohol) can be used. Ethanol is preferably used as the solvent.\nFor example, using ethanol as a solvent, T4 adjusted to 50 mM is diluted 500-fold, 5,000-fold, and 50,000-fold, respectively, and adjusted to […], 1 μM, and 100 nM. A feed can be prepared in this manner.\nArtificial seawater is added to a breeding vessel, and 1/1000 of the […] T4 is added to prepare […] T4 breeding water.\nHalf of the breeding water is replaced every two days with breeding water of the same concentration. In the case where the concentration is changed, for example, in the case of changing from 10 nM to 2 nM, 80% to the breeding water is removed, and unadjusted artificial seawater is newly added to make 1 L.\nLeptocephali visually considered to have reached a total length of 40 mm (or may be 30 mm to 50 mm, may be 35 mm to 45 mm, or may also be 35 mm or more, 40 mm or more, or 45 mm or more) are selected, anesthetized with 2-phenoxyethanol, and then photographed, and the total length of each larva is measured using an image analyzing device.\nThe larvae are placed in 10 nM T4 breeding water and then placed in an incubator set at 23° C., and breeding is started. In first one week, observation is performed every two days, and half of the 10 nM T4 breeding water is replaced each time. The average amount of thyroid hormone in the breeding water in stage 1 is 1 nM to 100 nM, for example, and may also be 3 nM to 30 nM, or 5 nM to 20 nM.\nFor larvae visually judged to have reached the second half of stage 2, the concentration of the breeding water is changed. The breeding water is diluted 5-fold or 10-fold and adjusted to 2 nM or 1 nM T4, and breeding is continued. The average amount of thyroid hormone in the breeding water in stage 2 may be, as compared with the breeding water of stage 1, diluted 2-fold to 20-fold, diluted 3 to 15-fold, or diluted 5 to 10-fold as described above. The average amount of thyroid hormone in the breeding water in stage 2 is 0.1 nM to 20 nM, for example, and may also be 0.5 nM to 10 nM, 1 nM to 5 nM, or 1 nM to 2 nM.\nFor larvae visually judged to have reached stage 3, the breeding water is quickly changed 0.2 nM T4 breeding water, which is a 5-fold dilution of 1 nM T4 breeding water, and further changed to 0.1 nM T4 breeding water on the following day. […] Also, in larvae whose anus position has not reached the last vertical hemal spine, when they are judged to be on the brink of stage 3, the concentration is changed as above. The average amount of thyroid hormone in the breeding water in stage 3 may be, as compared with the breeding water of stage 2, diluted 2-fold to 50-fold, diluted 3 to 15-fold, diluted 4 to 6-fold, or diluted 5-fold as described above. The average amount of thyroid hormone in the breeding water in stage 3 is 0.01 nM to 2 nM, for example, and may also be 0.05 nM to 1 nM, 0.1 nM to 0.5 nM, or 0.1 nM to 0.2 nM. […] That is, the concentration may be changed such that the thyroid hormone becomes undetectable in the breeding water in the course of stage 3.\nIn stage 3, breeding is continuously performed in the 0.1 nM T4 breeding water. […]",
  "data": [
    {"molecule": "N[C@@H](Cc1cc(I)c(Oc2cc(I)c(O)c(I)c2)c(I)c1)C(=O)O", "note": "[T4, thyroxine]", "values": [
      {"measurement": "metamorphosis stage", "setting": "individual Exp. 5-2, 175 days old, total length 41.3 mm at start, c3 onward = treatment days 1,3,5,7,8,9,10,11,12,13,14,15,16,17,18, T4 (nM) 10,10,10,10,2,1,0.2,0.1,0.1,0.1,0.1,0.1, treatment day 14, T4 0.1 nM", "value": 3},
      {"measurement": "metamorphosis stage", "setting": "individual Exp. 5-2, 175 days old, total length 41.3 mm at start, c3 onward = treatment days 1,3,5,7,8,9,10,11,12,13,14,15,16,17,18, T4 (nM) 10,10,10,10,2,1,0.2,0.1,0.1,0.1,0.1,0.1, treatment day 15, T4 0.1 nM", "value": 3},
      {"measurement": "metamorphosis stage", "setting": "individual Exp. 5-2, 175 days old, total length 41.3 mm at start, c3 onward = treatment days 1,3,5,7,8,9,10,11,12,13,14,15,16,17,18, T4 (nM) 10,10,10,10,2,1,0.2,0.1,0.1,0.1,0.1,0.1, treatment day 16", "value": 4},
      {"measurement": "metamorphosis stage", "setting": "individual Exp. 5-3, 175 days old, total length 41.7 mm at start, c3 onward = treatment days 1,3,5,7,8,9,10,11,12,13,14,15,16,17,18, T4 (nM) 10,10,10,10,2,1,0.2,0.1,0.1,0.1,0.1,0.1, treatment day 1, T4 10 nM", "value": "L"},
      {"measurement": "metamorphosis stage", "setting": "individual Exp. 5-3, 175 days old, total length 41.7 mm at start, c3 onward = treatment days 1,3,5,7,8,9,10,11,12,13,14,15,16,17,18, T4 (nM) 10,10,10,10,2,1,0.2,0.1,0.1,0.1,0.1,0.1, treatment day 3, T4 10 nM", "value": "L"},
      {"measurement": "metamorphosis stage", "setting": "individual Exp. 5-3, 175 days old, total length 41.7 mm at start, c3 onward = treatment days 1,3,5,7,8,9,10,11,12,13,14,15,16,17,18, T4 (nM) 10,10,10,10,2,1,0.2,0.1,0.1,0.1,0.1,0.1, treatment day 5, T4 10 nM", "value": 1},
      {"measurement": "metamorphosis stage", "setting": "individual Exp. 5-3, 175 days old, total length 41.7 mm at start, c3 onward = treatment days 1,3,5,7,8,9,10,11,12,13,14,15,16,17,18, T4 (nM) 10,10,10,10,2,1,0.2,0.1,0.1,0.1,0.1,0.1, treatment day 7, T4 10 nM", "value": 2},
      {"measurement": "metamorphosis stage", "setting": "individual Exp. 5-3, 175 days old, total length 41.7 mm at start, c3 onward = treatment days 1,3,5,7,8,9,10,11,12,13,14,15,16,17,18, T4 (nM) 10,10,10,10,2,1,0.2,0.1,0.1,0.1,0.1,0.1, treatment day 8, T4 2 nM", "value": 2},
      {"measurement": "metamorphosis stage", "setting": "individual Exp. 5-3, 175 days old, total length 41.7 mm at start, c3 onward = treatment days 1,3,5,7,8,9,10,11,12,13,14,15,16,17,18, T4 (nM) 10,10,10,10,2,1,0.2,0.1,0.1,0.1,0.1,0.1, treatment day 9, T4 1 nM", "value": 2},
      {"measurement": "metamorphosis stage", "setting": "individual Exp. 5-3, 175 days old, total length 41.7 mm at start, c3 onward = treatment days 1,3,5,7,8,9,10,11,12,13,14,15,16,17,18, T4 (nM) 10,10,10,10,2,1,0.2,0.1,0.1,0.1,0.1,0.1, treatment day 10, T4 0.2 nM", "value": 2},
      {"measurement": "metamorphosis stage", "setting": "individual Exp. 5-3, 175 days old, total length 41.7 mm at start, c3 onward = treatment days 1,3,5,7,8,9,10,11,12,13,14,15,16,17,18, T4 (nM) 10,10,10,10,2,1,0.2,0.1,0.1,0.1,0.1,0.1, treatment day 11, T4 0.1 nM", "value": 3},
      {"measurement": "metamorphosis stage", "setting": "individual Exp. 5-3, 175 days old, total length 41.7 mm at start, c3 onward = treatment days 1,3,5,7,8,9,10,11,12,13,14,15,16,17,18, T4 (nM) 10,10,10,10,2,1,0.2,0.1,0.1,0.1,0.1,0.1, treatment day 12, T4 0.1 nM", "value": 3},
      {"measurement": "metamorphosis stage", "setting": "individual Exp. 5-3, 175 days old, total length 41.7 mm at start, c3 onward = treatment days 1,3,5,7,8,9,10,11,12,13,14,15,16,17,18, T4 (nM) 10,10,10,10,2,1,0.2,0.1,0.1,0.1,0.1,0.1, treatment day 13, T4 0.1 nM", "value": 3},
      {"measurement": "metamorphosis stage", "setting": "individual Exp. 5-3, 175 days old, total length 41.7 mm at start, c3 onward = treatment days 1,3,5,7,8,9,10,11,12,13,14,15,16,17,18, T4 (nM) 10,10,10,10,2,1,0.2,0.1,0.1,0.1,0.1,0.1, treatment day 14, T4 0.1 nM", "value": 3},
      {"measurement": "metamorphosis stage", "setting": "individual Exp. 5-3, 175 days old, total length 41.7 mm at start, c3 onward = treatment days 1,3,5,7,8,9,10,11,12,13,14,15,16,17,18, T4 (nM) 10,10,10,10,2,1,0.2,0.1,0.1,0.1,0.1,0.1, treatment day 15, T4 0.1 nM", "value": 3},
      {"measurement": "metamorphosis stage", "setting": "individual Exp. 5-3, 175 days old, total length 41.7 mm at start, c3 onward = treatment days 1,3,5,7,8,9,10,11,12,13,14,15,16,17,18, T4 (nM) 10,10,10,10,2,1,0.2,0.1,0.1,0.1,0.1,0.1, treatment day 16", "value": 3},
      {"measurement": "metamorphosis stage", "setting": "individual Exp. 5-3, 175 days old, total length 41.7 mm at start, c3 onward = treatment days 1,3,5,7,8,9,10,11,12,13,14,15,16,17,18, T4 (nM) 10,10,10,10,2,1,0.2,0.1,0.1,0.1,0.1,0.1, treatment day 17", "value": 3},
      {"measurement": "metamorphosis stage", "setting": "individual Exp. 5-3, 175 days old, total length 41.7 mm at start, c3 onward = treatment days 1,3,5,7,8,9,10,11,12,13,14,15,16,17,18, T4 (nM) 10,10,10,10,2,1,0.2,0.1,0.1,0.1,0.1,0.1, treatment day 18", "value": 4},
      {"measurement": "metamorphosis stage", "setting": "individual Exp. 5-6, 174 days old, total length 34.5 mm at start, c3 onward = treatment days 1,3,5,7,8,9,10,11,12,13,14,15,16,17,18,20,22, T4 (nM) 10,10,10,10,10,10,10,2,1,1,0.2,0.1,0.1,0.1,0.1,0.1,0.1, treatment day 1, T4 10 nM", "value": "L"},
      {"measurement": "metamorphosis stage", "setting": "individual Exp. 5-6, 174 days old, total length 34.5 mm at start, c3 onward = treatment days 1,3,5,7,8,9,10,11,12,13,14,15,16,17,18,20,22, T4 (nM) 10,10,10,10,10,10,10,2,1,1,0.2,0.1,0.1,0.1,0.1,0.1,0.1, treatment day 3, T4 10 nM", "value": "L"},
      {"measurement": "metamorphosis stage", "setting": "individual Exp. 5-6, 174 days old, total length 34.5 mm at start, c3 onward = treatment days 1,3,5,7,8,9,10,11,12,13,14,15,16,17,18,20,22, T4 (nM) 10,10,10,10,10,10,10,2,1,1,0.2,0.1,0.1,0.1,0.1,0.1,0.1, treatment day 5, T4 10 nM", "value": "L"},
      {"measurement": "metamorphosis stage", "setting": "individual Exp. 5-6, 174 days old, total length 34.5 mm at start, c3 onward = treatment days 1,3,5,7,8,9,10,11,12,13,14,15,16,17,18,20,22, T4 (nM) 10,10,10,10,10,10,10,2,1,1,0.2,0.1,0.1,0.1,0.1,0.1,0.1, treatment day 7, T4 10 nM", "value": "L"},
      {"measurement": "metamorphosis stage", "setting": "individual Exp. 5-6, 174 days old, total length 34.5 mm at start, c3 onward = treatment days 1,3,5,7,8,9,10,11,12,13,14,15,16,17,18,20,22, T4 (nM) 10,10,10,10,10,10,10,2,1,1,0.2,0.1,0.1,0.1,0.1,0.1,0.1, treatment day 8, T4 10 nM", "value": 2},
      {"measurement": "metamorphosis stage", "setting": "individual Exp. 5-6, 174 days old, total length 34.5 mm at start, c3 onward = treatment days 1,3,5,7,8,9,10,11,12,13,14,15,16,17,18,20,22, T4 (nM) 10,10,10,10,10,10,10,2,1,1,0.2,0.1,0.1,0.1,0.1,0.1,0.1, treatment day 9, T4 10 nM", "value": 2},
      {"measurement": "metamorphosis stage", "setting": "individual Exp. 5-6, 174 days old, total length 34.5 mm at start, c3 onward = treatment days 1,3,5,7,8,9,10,11,12,13,14,15,16,17,18,20,22, T4 (nM) 10,10,10,10,10,10,10,2,1,1,0.2,0.1,0.1,0.1,0.1,0.1,0.1, treatment day 10, T4 10 nM", "value": 2}
    ]}
  ]
}
